Read-outs that look alike come from different tables or passages of the source.
Legend:
ETB receptors = biological target: T1, ETB receptors (Rattus norvegicus, UniProt P21451); assay: Inhibition of sarafotoxin S6c-induced contractions on isolated rat tracheal rings; conditions: for pA2 value ETB: rat tracheal rings, contraction induced by sarafotoxin S6c, 10 min incubation
T1 sequence (P21451 27-442): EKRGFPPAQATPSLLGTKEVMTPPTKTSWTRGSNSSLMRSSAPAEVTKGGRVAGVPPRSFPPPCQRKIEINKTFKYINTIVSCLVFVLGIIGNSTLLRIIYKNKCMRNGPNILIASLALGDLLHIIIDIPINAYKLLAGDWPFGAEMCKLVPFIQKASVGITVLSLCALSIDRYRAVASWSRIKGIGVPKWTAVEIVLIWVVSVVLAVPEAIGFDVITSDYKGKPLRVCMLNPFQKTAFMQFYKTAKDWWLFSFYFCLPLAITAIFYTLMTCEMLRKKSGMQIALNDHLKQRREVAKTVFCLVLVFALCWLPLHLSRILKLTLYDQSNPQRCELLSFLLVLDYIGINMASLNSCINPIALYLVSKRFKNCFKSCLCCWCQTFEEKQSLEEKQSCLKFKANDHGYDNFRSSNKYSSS

ETA receptors = biological target: T2, ETA receptors (Rattus norvegicus, UniProt P26684); assay: Inhibition of endothelin-1-induced contractions on isolated rat aortic rings; conditions: for pA2 value ETA: rat aortic rings, contraction induced by endothelin-1, 10 min incubation
T2 sequence (P26684 21-426): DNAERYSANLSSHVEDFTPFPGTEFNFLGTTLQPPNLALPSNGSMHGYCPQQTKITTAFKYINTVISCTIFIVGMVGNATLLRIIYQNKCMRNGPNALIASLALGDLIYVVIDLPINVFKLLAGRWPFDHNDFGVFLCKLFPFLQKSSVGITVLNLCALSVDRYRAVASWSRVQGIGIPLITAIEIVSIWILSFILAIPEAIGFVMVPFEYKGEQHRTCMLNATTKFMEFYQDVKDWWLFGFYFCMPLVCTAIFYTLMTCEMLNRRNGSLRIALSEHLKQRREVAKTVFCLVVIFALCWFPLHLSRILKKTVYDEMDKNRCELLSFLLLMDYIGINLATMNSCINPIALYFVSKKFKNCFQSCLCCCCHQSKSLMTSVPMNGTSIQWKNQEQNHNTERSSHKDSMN

[1] = biological target: T3, human recombinant ETB receptors (Homo sapiens, UniProt P24530); assay: Inhibition of endothelin binding to membranes from CHO cells carrying human ET receptors (ETB)
T3 construct: expressed in transfected cells; host or cells: CHO cells (microsomal membranes)
T3 sequence (P24530 27-442): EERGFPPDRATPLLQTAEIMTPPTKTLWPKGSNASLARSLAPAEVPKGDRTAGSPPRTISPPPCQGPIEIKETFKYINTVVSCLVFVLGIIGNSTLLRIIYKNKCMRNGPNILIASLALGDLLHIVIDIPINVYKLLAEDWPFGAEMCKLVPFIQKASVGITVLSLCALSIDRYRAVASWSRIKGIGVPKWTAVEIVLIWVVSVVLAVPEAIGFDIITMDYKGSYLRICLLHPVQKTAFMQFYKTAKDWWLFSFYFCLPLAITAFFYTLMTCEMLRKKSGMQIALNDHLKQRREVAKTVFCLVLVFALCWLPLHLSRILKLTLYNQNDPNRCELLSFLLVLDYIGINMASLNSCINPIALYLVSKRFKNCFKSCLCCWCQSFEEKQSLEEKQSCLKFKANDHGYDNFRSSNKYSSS

[2] = biological target: T4, human recombinant ETA receptors (Homo sapiens, UniProt P25101); assay: Inhibition of endothelin binding to membranes from CHO cells carrying human ET receptors (ETA)
T4 construct: expressed in transfected cells; host or cells: CHO cells (microsomal membranes)
T4 sequence (P25101 21-427): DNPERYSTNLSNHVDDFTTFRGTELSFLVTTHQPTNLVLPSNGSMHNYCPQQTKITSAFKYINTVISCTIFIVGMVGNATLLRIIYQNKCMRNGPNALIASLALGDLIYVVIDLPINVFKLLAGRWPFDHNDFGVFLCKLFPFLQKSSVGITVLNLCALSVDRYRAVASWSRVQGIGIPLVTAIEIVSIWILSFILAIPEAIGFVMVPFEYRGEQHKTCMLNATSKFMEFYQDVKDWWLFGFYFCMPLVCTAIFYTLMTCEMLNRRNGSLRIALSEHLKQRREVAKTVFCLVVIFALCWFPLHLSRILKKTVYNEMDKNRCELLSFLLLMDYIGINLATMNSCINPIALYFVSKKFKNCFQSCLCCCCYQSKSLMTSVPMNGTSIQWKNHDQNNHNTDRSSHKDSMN

[3] = membranes of CHO cells expressing human recombinant ETA receptors, 8 pM [125I]ET-1, 2 h at 20° C.

Compound	pA2 value ETB (ETB receptors)	pA2 value ETA (ETA receptors)	IC50 [1]	IC50 [2, 3]	Kb (ETB receptors)	Kb (ETA receptors)	IC50 [2]
COc1ccccc1Oc1c(NS(=O)(=O)c2ccc(C(C)(C)C)cc2)nc(-c2ncccn2)nc1OCCNS(=O)(=O)c1cccs1 [Example 7, p-tert.-butyl-N-[6-(ethoxy-2-(2-thiophenesulfonamido))-5-(o-methoxyphenoxy)-2-(2-pyrimidinyl)-4-pyrimidinyl]benzene-sulfonamide]	7.15	6.08	15.8 nM	63.6 nM	–	–	–
COc1ccccc1Oc1c(NS(=O)(=O)c2ccc(C(C)C)cn2)nc(-c2ccncc2)nc1OCCNS(=O)(=O)C(C)C [Example 10, 5-i.-propyl-N-[6-(ethoxy-2-(2-propanesulfonamido))-5-(o-methoxyphenoxy)-2-(4-pyridyl)-4-pyrimidinyl]pyridine-2-sulfonamide]	–	–	193 nM	–	1260 nM	186 nM	67.2 nM
COc1ccccc1Oc1c(NS(=O)(=O)c2ccc(C(C)C)cn2)nc(-c2ccncc2)nc1OCCNS(=O)(=O)c1ccc(C)cc1 [Example 12]	–	–	73.3 nM	–	513 nM	851 nM	2120 nM
CCCS(=O)(=O)NCCOc1nc(-c2cc(OC)c(OC)c(OC)c2)nc(NS(=O)(=O)c2ccc(C(C)C)cn2)c1Oc1ccccc1OC [Example 16, 5-i.-propyl-N-[6-(ethoxy-2-(1-propanesulfonamido))-5-(o-methoxyphenoxy)-2-(3,4,5-trimethoxyphenyl)-4-pyrimidinyl]pyridine-2-sulfonamide]	–	–	24.5 nM	261 nM	34.7 nM	> 3160 nM	–
CCCS(=O)(=O)NCCOc1nc(N2CCOCC2)nc(NS(=O)(=O)c2ccc(C)cn2)c1Oc1ccccc1OC [Example 59, 5-methyl-N-[6-(2-(1-propanesulfonylamino)-ethoxy)-5-(o-methoxyphenoxy)-2-(N-morpholino)-4-pyrimidinyl]-2-pyridine sulfonamide]	5.58	6.61	189 nM	–	–	–	103 nM
CCS(=O)(=O)NCCOc1nc(N2CCOCC2)nc(NS(=O)(=O)c2ccc(C(C)C)cn2)c1Oc1ccccc1OC [Example 61, 5-isopropyl-N-[6-(2-(ethanesulfonylamino)-ethoxy)-5-(o-methoxyphenoxy)-2-(N-morpholino)-4-pyrimidinyl]-2-pyridine sulfonamide]	6.36	7.02	183 nM	–	–	–	92 nM
